Assays:
human tumour cell lines = test: In vitro cytotoxicity, mean graph midpoints (MG_MID) over human tumour cell lines; assay type: cell-based
Procedure: (§1) Biological Activity: The in vitro cell line studies were carried out at the National Cancer Institute, Maryland, USA.
(§2) 6b, 6c, 6g, 10a and 10b were evaluated for in vitro anticancer activity against sixty human tumour cells derived from nine cancer types (leukemia, non-small-cell lung, colon, CNS, melanoma, ovarian, prostate, renal and breast cancer) as shown in (Table 1 and 2). For the compound, dose response curves for each cell line were measured at a minimum of five concentrations at 10 fold dilutions. A protocol of 48 h continuous drug exposure was used and a sulforhodamine B (SRB) protein assay was used to estimate cell viability or growth. The concentration causing 50% cell growth inhibition (GI50), total cell growth inhibition (TGI 0% growth) and 50% cell death (LC50, −50% growth) compared with the control was calculated.

[1] = system: duplex-form calf thymus DNA (CT-DNA); test: Thermal denaturation studies with calf thymus DNA; assay type: binding; conditions: [PBD]:[DNA] molar ratio 1:5, CT-DNA 100 μM, ligand 20 μM, pH 7.00
Procedure: These compounds have also been subjected to thermal denaturation studies with duplex-form calf thymus DNA (CT-DNA) using an modification of a reported procedure. Working solutions in aqueous buffer (10 mM NaH2PO4/Na2HPO4, 1 mM Na2EDTA, pH 7.00+0.01) containing CT-DNA (100 μm in phosphate) and the PBD (20 μm) have been prepared by addition of concentrated PBD solutions in DMSO to obtain a fixed [PBD]/[DNA] molar ratio of 1:5. The DNA-PBD solutions have been incubated at 37° C. for 0 and 18 h prior to analysis. Samples have been monitored at 260 nm using a Beckman DU-800 spectrophotometer fitted with high performance temperature controller, and heated at 1° C. min^−1 in the 40-110° C. range. DNA helix→coil transition temperatures (Tm) have been obtained from the maxima in the d(A260)/d T derivative plots. Drug-induced alterations in DNA melting behavior are given by: ΔTm=Tm(DNA+PBD)−Tm(DNA alone), where the Tm value for the PBD-free CT-DNA is 68.5±0.01.

786-0 (Renal) = test: Cytotoxicity in selected cancer cell lines (SRB, 48 h); assay type: cell-based, human
Procedure: as §1, §2
(§3) Each cancer type represents the average of six to nine different cancer cell lines. In vitro evaluation of cytotoxic activity. The compound 6b, 6c, 6g 10a and 10b were evaluated for in vitro anticancer activity against nine human tumour cells derived from six cancer types (leukemia, colon, prostate, melanoma, ovarian, lung, cervix and breast cancer) as shown in Table 3. […] Compounds 6b, 6c, 6g, 10a and 10b have been evaluated for their in vitro cytotoxicity in selected human cancer cell lines of colon (Colo205), lung (NCI-H522, NCI-H226), colon (colo-205), prostate (DU145, PC3), ovarian (IGROV1, HT1080), and breast (MDA-MB-435, Zr-75-1), melanoma (LOXMIVI, VACC-62, SK-MEL-5) origin. A protocol of 48 h continuous drug exposure has been used and an […] has been used to estimate cell viability or growth. The results are expressed as percent of cell growth determined relative to that of untreated control cells

HCT-15 (Colon) = test: as above; assay type: cell-based, human
Procedure: as §1, §2, §3

UO-31 (Renal) = test: as above; assay type: cell-based, human
Procedure: as §1, §2, §3

MALME-3M (Melanoma) = test: as above; assay type: cell-based, human
Procedure: as §1, §2, §3

CCRF-CEM (Leukemia) = test: as above; assay type: cell-based, human
Procedure: as §1, §2, §3

UACC-257 (Melanoma) = test: as above; assay type: cell-based, human
Procedure: as §1, §2, §3

OVCAR-3 (Ovarian) = test: as above; assay type: cell-based, human
Procedure: as §1, §2, §3

MDA-MB-231/ATCC (Breast) = test: as above; assay type: cell-based, human
Procedure: as §1, §2, §3

HCT-116 (Colon) = test: as above; assay type: cell-based, human
Procedure: as §1, §2, §3

SW-620 (Colon) = test: as above; assay type: cell-based, human
Procedure: as §1, §2, §3

UACC-62 (Melanoma) = test: as above; assay type: cell-based, human
Procedure: as §1, §2, §3

M14 (Melanoma) = test: as above; assay type: cell-based, human
Procedure: as §1, §2, §3

U251 (CNS) = test: as above; assay type: cell-based, human
Procedure: as §1, §2, §3

[2] = system: NCI-H23 (Non-small cell lung); test: as above; assay type: cell-based, human
Procedure: as §1, §2, §3

[3] = system: NCI-H522 (Non-small cell lung); test: as above; assay type: cell-based, human
Procedure: as §1, §2, §3

CAKI-1 (Renal) = test: as above; assay type: cell-based, human
Procedure: as §1, §2, §3

[4] = system: NCI-H226 (Non-small cell lung); test: as above; assay type: cell-based, human
Procedure: as §1, §2, §3

HL-60(TB) (Leukemia) = test: as above; assay type: cell-based, human
Procedure: as §1, §2, §3

TK-10 (Renal) = test: as above; assay type: cell-based, human
Procedure: as §1, §2, §3

A498 (Renal) = test: as above; assay type: cell-based, human
Procedure: as §1, §2, §3

RPMI-8226 (Leukemia) = test: as above; assay type: cell-based, human
Procedure: as §1, §2, §3

ACHN (Renal) = test: as above; assay type: cell-based, human
Procedure: as §1, §2, §3

LOX IMVI (Melanoma) = test: as above; assay type: cell-based, human
Procedure: as §1, §2, §3

NCI/ADR-RES (Breast) = test: as above; assay type: cell-based, human
Procedure: as §1, §2, §3

SF-539 (CNS) = test: as above; assay type: cell-based, human
Procedure: as §1, §2, §3

SK-MEL-5 (Melanoma) = test: as above; assay type: cell-based, human
Procedure: as §1, §2, §3

## COc1cc(C=CC(=O)c2ccc(F)cc2)ccc1OCCCCOc1cc2c(cc1OC)C(=O)N1CCC[C@H]1C=N2 [6b, 7-Methoxy-8-{4-[1-(4-fluorophenyl)-3-(4-hydroxy-3-methoxyphenyl)-2-propen-1-one]butyl}-oxy-(11aS)-1,2,3,11a-5H-pyrrolo[2,1-c][1,4]benzodiazepin-5-one]
Human tumour cell lines; 50% cell death, human tumour cell lines, 48 h exposure, SRB
  Log10LC50 mean graph midpoint (MG_MID): −4.59
Human tumour cell lines; human tumour cell lines, 48 h exposure, SRB
  Log10GI50 mean graph midpoint (MG_MID): −6.83
Human tumour cell lines; in words, refers to Table 3
  cytotoxicity against some cancer cell lines: promising cytotoxicity
Human tumour cell lines; total cell growth inhibition, human tumour cell lines, 48 h exposure, SRB
  Log10TGI mean graph midpoint (MG_MID): −6.81
[1]; 0 h incubation
  ΔTμ (° C.) after incubation at 37 °C. for 0 h: 2.2 °C
[1]; 18 h incubation
  ΔTμ (° C.) after incubation at 37 °C. for 18 h: 2.6 °C
786-0 (Renal)
  GI50: 19.8 µM
HCT-15 (Colon)
  GI50: 28.5 µM
UO-31 (Renal)
  GI50: 19.2 µM
MALME-3M (Melanoma)
  GI50: 18.2 µM
CCRF-CEM (Leukemia)
  GI50: 16 µM
UACC-257 (Melanoma)
  GI50: 70.9 µM
OVCAR-3 (Ovarian)
  GI50: 37 µM
MDA-MB-231/ATCC (Breast)
  GI50: 11.6 µM
HCT-116 (Colon)
  GI50: 11.2 µM
SW-620 (Colon)
  GI50: 13.5 µM
UACC-62 (Melanoma)
  GI50: 10 µM
M14 (Melanoma)
  GI50: 10.1 µM
U251 (CNS)
  GI50: 14.8 µM
[2]
  GI50: 19.2 µM
[3]
  GI50: 11.5 µM
CAKI-1 (Renal)
  GI50: 13.6 µM
[4]
  GI50: 14 µM
HL-60(TB) (Leukemia)
  GI50: 29 µM
TK-10 (Renal)
  GI50: 16.6 µM
A498 (Renal)
  GI50: 26.1 µM
RPMI-8226 (Leukemia)
  GI50: 13 µM
ACHN (Renal)
  GI50: 43.4 µM
LOX IMVI (Melanoma)
  GI50: 10 µM
NCI/ADR-RES (Breast)
  GI50: 13.8 µM
SF-539 (CNS)
  GI50: 29.6 µM
SK-MEL-5 (Melanoma)
  GI50: 10 µM

From US8461150B2, “Chalcone linked pyrrolo[2,1-c][1, 4]benzodiazepine hybrids as potential anticancer agents and process for the preparation thereof” (Council of Scientific & Industrial Research, priority 2008, dated 2013)
